Experiments:
Assay in all cases: KINOMEscan competition binding
Details in all cases: compound 10.0 µM
[1] = target: RPS6KA2 KD2 (human) (UniProt Q15349)
[2] = target: STK39 (human) (UniProt Q9UEW8)
[3] = target: KDR (human) (UniProt P35968)
[4] = target: MYO3B (human) (UniProt Q8WXR4)
[5] = tested on: KIT (human), P10721 [V559D/T670I]
[6] = target: MYLK2 (human) (UniProt Q9H1R3)
[7] = target: NEK9 (human) (UniProt Q8TD19)
[8] = target: CAMKK1 (human) (UniProt Q8N5S9)
[9] = tested on: KIT (human), P10721 [D816H]
[10] = target: BMPR2 (human) (UniProt Q13873)
[11] = target: TEK (human) (UniProt Q02763)
[12] = target: BMPR1B (human) (UniProt O00238)
[13] = target: MAP4K3 (human) (UniProt Q8IVH8)
[14] = target: ERN1 (human) (UniProt O75460)
[15] = target: ERBB4 (human) (UniProt Q15303)
[16] = target: TLK1 (human) (UniProt Q9UKI8)
[17] = target: KIT (human) (UniProt P10721)
[18] = target: YES1 (human) (UniProt P07947)
[19] = target: MAP2K5 (human) (UniProt Q13163)
[20] = tested on: LRRK2 (human), Q5S007 [G2019S]
[21] = target: PRKD3 (human) (UniProt O94806)
[22] = target: SNRK (human) (UniProt Q9NRH2)
[23] = target: PTK2 (human) (UniProt Q05397)
[24] = target: GRK4 (human) (UniProt P32298)
[25] = target: STK32B (human) (UniProt Q9NY57)
[26] = tested on: FLT3 (human), P36888 [D835Y]
[27] = target: SBK1 (human) (UniProt Q52WX2)
[28] = target: ACVR1B (human) (UniProt P36896)
[29] = target: ULK1 (human) (UniProt O75385)
[30] = target: TYK2 JH1 catalytic (human) (UniProt P29597)
[31] = target: DAPK1 (human) (UniProt P53355)
[32] = target: MAPK10 (human) (UniProt P53779)
[33] = target: MAP3K7 (human) (UniProt O43318)
[34] = target: STK17A (human) (UniProt Q9UEE5)
[35] = target: LATS1 (human) (UniProt O95835)
[36] = target: ULK2 (human) (UniProt Q8IYT8)
[37] = target: RPS6KA1 KD1 (human) (UniProt Q15418)
[38] = target: BMP2K (human) (UniProt Q9NSY1)
[39] = target: NTRK3 (human) (UniProt Q16288)
[40] = target: TLK2 (human) (UniProt Q86UE8)
[41] = target: CDK13 (human) (UniProt Q14004)
[42] = tested on: KIT (human), P10721 [A829P]

ERBB4 (human), sequence (Q15303 whole entry, looked up): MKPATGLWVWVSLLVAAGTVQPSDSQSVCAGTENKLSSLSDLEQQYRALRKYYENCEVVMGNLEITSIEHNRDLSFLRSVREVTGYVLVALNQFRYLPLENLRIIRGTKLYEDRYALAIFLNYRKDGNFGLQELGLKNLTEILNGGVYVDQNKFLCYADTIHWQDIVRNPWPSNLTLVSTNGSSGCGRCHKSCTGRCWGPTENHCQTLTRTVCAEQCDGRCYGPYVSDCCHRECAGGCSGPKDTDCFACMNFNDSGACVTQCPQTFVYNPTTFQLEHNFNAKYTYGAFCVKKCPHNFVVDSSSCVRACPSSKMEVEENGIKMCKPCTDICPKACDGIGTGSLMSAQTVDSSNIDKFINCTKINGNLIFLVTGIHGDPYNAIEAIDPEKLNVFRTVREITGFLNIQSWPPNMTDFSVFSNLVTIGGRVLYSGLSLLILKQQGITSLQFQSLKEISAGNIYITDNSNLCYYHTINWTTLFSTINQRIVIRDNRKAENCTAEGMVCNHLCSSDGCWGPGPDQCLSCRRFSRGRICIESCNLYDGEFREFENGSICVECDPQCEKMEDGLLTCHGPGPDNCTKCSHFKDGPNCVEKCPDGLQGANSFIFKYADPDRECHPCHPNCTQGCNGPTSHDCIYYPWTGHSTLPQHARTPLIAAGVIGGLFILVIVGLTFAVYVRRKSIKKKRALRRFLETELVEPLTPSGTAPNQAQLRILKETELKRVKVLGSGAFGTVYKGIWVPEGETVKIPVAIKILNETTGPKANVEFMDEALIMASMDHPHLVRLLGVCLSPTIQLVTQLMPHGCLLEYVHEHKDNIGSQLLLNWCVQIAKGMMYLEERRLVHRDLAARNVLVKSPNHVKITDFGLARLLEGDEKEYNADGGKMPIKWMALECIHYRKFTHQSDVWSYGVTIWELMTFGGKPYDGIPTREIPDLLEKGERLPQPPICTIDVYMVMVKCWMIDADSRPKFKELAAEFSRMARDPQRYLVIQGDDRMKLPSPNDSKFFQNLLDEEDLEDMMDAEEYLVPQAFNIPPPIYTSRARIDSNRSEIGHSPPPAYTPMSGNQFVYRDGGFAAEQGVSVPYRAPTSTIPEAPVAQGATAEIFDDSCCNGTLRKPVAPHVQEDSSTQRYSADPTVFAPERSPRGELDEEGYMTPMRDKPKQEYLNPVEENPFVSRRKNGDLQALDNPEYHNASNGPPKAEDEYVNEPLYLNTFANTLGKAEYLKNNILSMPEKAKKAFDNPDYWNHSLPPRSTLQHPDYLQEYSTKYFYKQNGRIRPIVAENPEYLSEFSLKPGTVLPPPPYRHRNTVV
SBK1 (human), sequence (Q52WX2 whole entry, looked up): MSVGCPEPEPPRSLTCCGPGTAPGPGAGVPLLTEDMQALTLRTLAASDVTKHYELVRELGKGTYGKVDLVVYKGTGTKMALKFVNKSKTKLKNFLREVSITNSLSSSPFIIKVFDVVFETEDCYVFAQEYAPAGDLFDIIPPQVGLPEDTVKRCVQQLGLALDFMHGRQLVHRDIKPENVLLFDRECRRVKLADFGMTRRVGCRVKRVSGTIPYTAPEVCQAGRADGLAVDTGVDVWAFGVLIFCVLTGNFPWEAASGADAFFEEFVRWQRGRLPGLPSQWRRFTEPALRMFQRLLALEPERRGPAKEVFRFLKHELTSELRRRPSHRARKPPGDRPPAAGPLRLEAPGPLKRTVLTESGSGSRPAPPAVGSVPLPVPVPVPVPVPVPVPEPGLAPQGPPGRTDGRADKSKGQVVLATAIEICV
TEK (human), sequence (Q02763 whole entry, looked up): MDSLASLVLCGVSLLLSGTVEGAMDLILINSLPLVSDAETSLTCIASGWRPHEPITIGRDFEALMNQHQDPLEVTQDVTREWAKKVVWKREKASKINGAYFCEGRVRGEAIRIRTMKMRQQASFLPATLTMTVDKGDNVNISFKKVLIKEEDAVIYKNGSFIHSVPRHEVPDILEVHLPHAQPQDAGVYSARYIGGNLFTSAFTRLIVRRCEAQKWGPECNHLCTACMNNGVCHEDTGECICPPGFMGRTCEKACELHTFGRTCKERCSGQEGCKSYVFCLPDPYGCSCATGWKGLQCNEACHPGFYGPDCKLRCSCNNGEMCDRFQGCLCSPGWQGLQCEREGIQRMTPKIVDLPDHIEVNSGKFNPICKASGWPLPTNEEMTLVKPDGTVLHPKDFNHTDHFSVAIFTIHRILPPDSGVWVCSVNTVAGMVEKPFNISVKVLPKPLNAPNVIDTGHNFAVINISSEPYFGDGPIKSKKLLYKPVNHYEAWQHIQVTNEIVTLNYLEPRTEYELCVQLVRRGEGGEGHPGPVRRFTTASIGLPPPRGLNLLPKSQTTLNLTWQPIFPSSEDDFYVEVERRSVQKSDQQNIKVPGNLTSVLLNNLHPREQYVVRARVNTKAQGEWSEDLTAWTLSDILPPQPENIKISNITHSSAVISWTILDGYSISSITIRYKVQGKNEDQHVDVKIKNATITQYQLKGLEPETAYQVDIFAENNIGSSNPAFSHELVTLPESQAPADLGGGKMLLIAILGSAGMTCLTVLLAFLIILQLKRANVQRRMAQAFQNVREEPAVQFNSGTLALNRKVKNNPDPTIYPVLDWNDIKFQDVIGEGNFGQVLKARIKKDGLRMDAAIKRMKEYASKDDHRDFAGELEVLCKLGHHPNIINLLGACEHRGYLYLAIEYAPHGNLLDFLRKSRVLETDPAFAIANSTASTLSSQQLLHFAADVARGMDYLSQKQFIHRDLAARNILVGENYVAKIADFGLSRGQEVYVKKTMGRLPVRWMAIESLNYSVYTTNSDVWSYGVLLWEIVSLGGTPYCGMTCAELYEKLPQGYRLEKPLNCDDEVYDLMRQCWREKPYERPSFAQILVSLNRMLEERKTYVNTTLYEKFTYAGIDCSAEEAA
NEK9 (human), sequence (Q8TD19 whole entry, looked up): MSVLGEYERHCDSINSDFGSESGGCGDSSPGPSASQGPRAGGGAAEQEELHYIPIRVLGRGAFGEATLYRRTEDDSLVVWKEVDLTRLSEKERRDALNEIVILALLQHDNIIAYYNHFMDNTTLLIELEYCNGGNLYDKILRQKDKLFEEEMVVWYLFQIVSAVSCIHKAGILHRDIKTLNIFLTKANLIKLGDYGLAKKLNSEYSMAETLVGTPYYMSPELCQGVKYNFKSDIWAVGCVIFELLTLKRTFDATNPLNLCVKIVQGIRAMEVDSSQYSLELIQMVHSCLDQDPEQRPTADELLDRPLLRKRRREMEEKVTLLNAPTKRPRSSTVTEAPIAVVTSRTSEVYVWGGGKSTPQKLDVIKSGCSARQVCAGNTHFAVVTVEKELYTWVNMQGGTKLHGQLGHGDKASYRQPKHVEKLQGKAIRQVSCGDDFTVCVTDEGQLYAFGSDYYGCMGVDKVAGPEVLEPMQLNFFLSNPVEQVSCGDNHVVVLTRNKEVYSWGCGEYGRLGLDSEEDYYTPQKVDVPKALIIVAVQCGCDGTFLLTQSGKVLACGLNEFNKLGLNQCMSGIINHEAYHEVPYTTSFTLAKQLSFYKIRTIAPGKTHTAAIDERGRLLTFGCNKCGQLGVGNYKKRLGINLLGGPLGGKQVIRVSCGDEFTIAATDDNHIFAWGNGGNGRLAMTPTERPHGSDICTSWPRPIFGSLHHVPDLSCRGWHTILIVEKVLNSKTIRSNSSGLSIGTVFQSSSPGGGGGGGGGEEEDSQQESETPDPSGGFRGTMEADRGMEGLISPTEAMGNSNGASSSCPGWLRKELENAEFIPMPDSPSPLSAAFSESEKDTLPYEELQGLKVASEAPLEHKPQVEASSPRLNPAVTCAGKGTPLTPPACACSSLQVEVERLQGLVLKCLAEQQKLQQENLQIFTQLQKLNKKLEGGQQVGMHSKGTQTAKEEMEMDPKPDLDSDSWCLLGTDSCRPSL
LATS1 (human), sequence (O95835 whole entry, looked up): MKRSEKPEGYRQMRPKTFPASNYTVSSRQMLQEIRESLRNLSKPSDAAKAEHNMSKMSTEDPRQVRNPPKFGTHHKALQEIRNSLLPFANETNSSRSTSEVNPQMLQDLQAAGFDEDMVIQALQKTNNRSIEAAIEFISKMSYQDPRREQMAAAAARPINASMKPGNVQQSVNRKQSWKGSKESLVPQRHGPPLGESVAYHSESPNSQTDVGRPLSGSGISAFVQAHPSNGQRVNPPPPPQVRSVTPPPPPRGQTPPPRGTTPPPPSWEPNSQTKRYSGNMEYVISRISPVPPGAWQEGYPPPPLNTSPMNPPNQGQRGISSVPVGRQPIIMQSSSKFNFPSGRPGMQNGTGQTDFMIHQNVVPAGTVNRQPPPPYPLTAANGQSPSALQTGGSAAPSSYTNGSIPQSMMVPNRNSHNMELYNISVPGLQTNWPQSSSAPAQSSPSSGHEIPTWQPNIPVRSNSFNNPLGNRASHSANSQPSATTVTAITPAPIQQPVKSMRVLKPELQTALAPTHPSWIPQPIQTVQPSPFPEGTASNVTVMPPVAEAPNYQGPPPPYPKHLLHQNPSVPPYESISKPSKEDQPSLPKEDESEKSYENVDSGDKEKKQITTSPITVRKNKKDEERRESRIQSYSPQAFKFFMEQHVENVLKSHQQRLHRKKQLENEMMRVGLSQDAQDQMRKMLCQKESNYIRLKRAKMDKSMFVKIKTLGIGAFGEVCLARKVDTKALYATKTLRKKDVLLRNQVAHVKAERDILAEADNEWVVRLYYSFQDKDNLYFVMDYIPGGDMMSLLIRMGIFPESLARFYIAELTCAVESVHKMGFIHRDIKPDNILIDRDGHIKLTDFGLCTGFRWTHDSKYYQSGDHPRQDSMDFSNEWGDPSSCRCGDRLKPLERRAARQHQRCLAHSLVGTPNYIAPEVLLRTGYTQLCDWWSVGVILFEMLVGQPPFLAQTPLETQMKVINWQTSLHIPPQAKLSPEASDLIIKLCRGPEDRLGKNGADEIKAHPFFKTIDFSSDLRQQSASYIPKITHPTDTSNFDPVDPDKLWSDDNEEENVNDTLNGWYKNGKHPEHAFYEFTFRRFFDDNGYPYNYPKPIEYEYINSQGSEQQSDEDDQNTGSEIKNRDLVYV

SMILES: Cc1cc([C@@H](C)Nc2ccccc2C(=O)O)c2nc(N3CCOCC3)cc(=O)n2c1
- kinase still bound, per cent of control [1]: 100%
- kinase still bound, per cent of control [2]: 58%
- kinase still bound, per cent of control [3]: 100%
- kinase still bound, per cent of control [4]: 51%
- kinase still bound, per cent of control [5]: 64%
- kinase still bound, per cent of control [6]: 94%
- kinase still bound, per cent of control [7]: 94%
- kinase still bound, per cent of control [8]: 91%
- kinase still bound, per cent of control [9]: 93%
- kinase still bound, per cent of control [10]: 84%
- kinase still bound, per cent of control [11]: 94%
- kinase still bound, per cent of control [12]: 89%
- kinase still bound, per cent of control [13]: 99%
- kinase still bound, per cent of control [14]: 100%
- kinase still bound, per cent of control [15]: 94%
- kinase still bound, per cent of control [16]: 100%
- kinase still bound, per cent of control [17]: 69%
- kinase still bound, per cent of control [18]: 100%
- kinase still bound, per cent of control [19]: 100%
- kinase still bound, per cent of control [20]: 90%
- kinase still bound, per cent of control [21]: 85%
- kinase still bound, per cent of control [22]: 54%
- kinase still bound, per cent of control [23]: 80%
- kinase still bound, per cent of control [24]: 80%
- kinase still bound, per cent of control [25]: 100%
- kinase still bound, per cent of control [26]: 24%
- kinase still bound, per cent of control [27]: 100%
- kinase still bound, per cent of control [28]: 100%
- kinase still bound, per cent of control [29]: 73%
- kinase still bound, per cent of control [30]: 100%
- kinase still bound, per cent of control [31]: 100%
- kinase still bound, per cent of control [32]: 66%
- kinase still bound, per cent of control [33]: 100%
- kinase still bound, per cent of control [34]: 87%
- kinase still bound, per cent of control [35]: 60%
- kinase still bound, per cent of control [36]: 100%
- kinase still bound, per cent of control [37]: 67%
- kinase still bound, per cent of control [38]: 100%
- kinase still bound, per cent of control [39]: 75%
- kinase still bound, per cent of control [40]: 100%
- kinase still bound, per cent of control [41]: 100%
- kinase still bound, per cent of control [42]: 87%

Reference: the kinase profiling compilation of Christmann-Franck et al. (2016)
